Laboratory results taken from publication PMC3623016 (Journal of biomolecular screening, 2012).
Values joined by “and” are separate entries in the source; they are usually repeats but may differ in a detail not shown here. Identical values can stand only once.

Assays:
[1] = test system: Jurkat-DNR cells
[2] = test system: Ig-MXP3 cells; assay: Direct cytotoxicity; assay type: cell-based
[3] = target: T1, ABCG2 (Homo sapiens, UniProt Q9UNQ0); assay: JC-1 efflux inhibition dose-response, flow cytometry, Ig-MXP3 cells; assay type: cell-based; details: quotient of average ABCB1 IC50 and average ABCG2 IC50, JC-1 efflux assay
T1 sequence (Q9UNQ0 1-655): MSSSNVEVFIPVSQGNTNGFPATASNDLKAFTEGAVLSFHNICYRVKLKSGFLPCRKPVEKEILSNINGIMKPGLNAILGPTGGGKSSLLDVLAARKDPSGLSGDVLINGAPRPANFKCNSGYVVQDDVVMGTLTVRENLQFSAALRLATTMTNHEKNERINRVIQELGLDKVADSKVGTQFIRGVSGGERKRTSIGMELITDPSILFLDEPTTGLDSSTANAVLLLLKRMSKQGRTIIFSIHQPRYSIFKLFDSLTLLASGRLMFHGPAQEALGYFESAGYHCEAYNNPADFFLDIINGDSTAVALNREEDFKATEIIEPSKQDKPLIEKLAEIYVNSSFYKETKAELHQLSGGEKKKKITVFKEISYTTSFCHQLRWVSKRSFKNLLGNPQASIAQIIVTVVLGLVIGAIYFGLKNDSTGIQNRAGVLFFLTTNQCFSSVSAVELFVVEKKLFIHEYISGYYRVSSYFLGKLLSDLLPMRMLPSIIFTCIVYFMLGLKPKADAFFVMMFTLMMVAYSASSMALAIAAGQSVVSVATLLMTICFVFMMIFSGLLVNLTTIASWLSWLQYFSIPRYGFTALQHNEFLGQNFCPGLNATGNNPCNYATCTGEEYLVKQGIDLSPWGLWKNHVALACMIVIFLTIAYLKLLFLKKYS

Row | Compound | ABCB1 TD50 [1] | ABCG2 TD50 [2] | ∼Fold G2 Selective [3]
1 | O=C(NCCCN1CCOCC1)c1cnn2c(-c3ccccc3)cc(-c3ccccc3)nc12 [Compound 6, reversan, reference compound] | 7.04 µM | >100 µM | –
2 | O=C(c1ccco1)N1CCN(c2cc(-c3ccccc3)nc3cc(-c4cccc(Cl)c4)nn23)CC1 [Compound 8] | 6.77 µM | 6.00 µM | 6.4 fold
3 | Cc1nc2cc(-c3cccc(Cl)c3)nn2c(N2CCN(C(=O)c3ccco3)CC2)c1C [Compound 9] | >100 µM | 47.40 µM | 3.2 fold
4 | Cc1cc(N2CCN(C(=O)c3ccco3)CC2)n2nc(-c3cccc(Cl)c3)cc2n1 [Compound 10] | – | – | 2.1 fold
5 | O=C(c1ccoc1)N1CCN(c2cc(-c3ccccc3)nc3cc(-c4cccc(Cl)c4)nn23)CC1 [Compound 11] | – | – | 7 fold and 7.2 fold
6 | O=C(c1ccsc1)N1CCN(c2cc(-c3ccccc3)nc3cc(-c4cccc(Cl)c4)nn23)CC1 [Compound 12] | – | – | 2.8 fold
7 | O=C(c1ccccc1)N1CCN(c2cc(-c3ccccc3)nc3cc(-c4cccc(Cl)c4)nn23)CC1 [Compound 13] | – | – | 2.4 fold
8 | COc1ccccc1C(=O)N1CCN(c2cc(-c3ccccc3)nc3cc(-c4cccc(Cl)c4)nn23)CC1 [Compound 14] | – | – | 1.0 fold
9 | COc1cccc(C(=O)N2CCN(c3cc(-c4ccccc4)nc4cc(-c5cccc(Cl)c5)nn34)CC2)c1 [Compound 15] | >100 µM | >100 µM | 0.6 fold
10 | COc1ccc(C(=O)N2CCN(c3cc(-c4ccccc4)nc4cc(-c5cccc(Cl)c5)nn34)CC2)cc1 [Compound 16] | – | – | 1.0 fold
11 | O=C(c1ccccc1Cl)N1CCN(c2cc(-c3ccccc3)nc3cc(-c4cccc(Cl)c4)nn23)CC1 [Compound 17] | – | – | 1.4 fold
12 | O=C(c1cccc(Cl)c1)N1CCN(c2cc(-c3ccccc3)nc3cc(-c4cccc(Cl)c4)nn23)CC1 [Compound 18] | – | – | 1.4 fold
13 | O=C(c1ccc(Cl)cc1)N1CCN(c2cc(-c3ccccc3)nc3cc(-c4cccc(Cl)c4)nn23)CC1 [Compound 19] | – | – | 0.9 fold
14 | O=C(c1cccnc1)N1CCN(c2cc(-c3ccccc3)nc3cc(-c4cccc(Cl)c4)nn23)CC1 [Compound 20] | 4.72 µM | 10.30 µM | 2.5 fold
15 | O=C(c1ccncc1)N1CCN(c2cc(-c3ccccc3)nc3cc(-c4cccc(Cl)c4)nn23)CC1 [Compound 21] | 10.90 µM | 28.30 µM | 1.1 fold
16 | O=C(C1CCCCC1)N1CCN(c2cc(-c3ccccc3)nc3cc(-c4cccc(Cl)c4)nn23)CC1 [Compound 22] | – | – | 1.2 fold
17 | CC(=O)N1CCN(c2cc(-c3ccccc3)nc3cc(-c4cccc(Cl)c4)nn23)CC1 [Compound 23] | – | – | 0.9 fold
18 | O=C(Cc1ccccc1)N1CCN(c2cc(-c3ccccc3)nc3cc(-c4cccc(Cl)c4)nn23)CC1 [Compound 24] | 17.80 µM | >100 µM | 0.8 fold
19 | O=C(c1ccoc1)N1CCN(c2cc(-c3ccccc3F)nc3cc(-c4cccc(Cl)c4)nn23)CC1 [Compound 26] | – | – | 2.4 fold
20 | O=C(c1ccoc1)N1CCN(c2cc(-c3ccc(F)cc3)nc3cc(-c4cccc(Cl)c4)nn23)CC1 [Compound 27] | – | – | 2.3 fold
21 | COc1cccc(-c2cc(N3CCN(C(=O)c4ccoc4)CC3)n3nc(-c4cccc(Cl)c4)cc3n2)c1 [Compound 28] | – | – | 1.9 fold
22 | COc1ccc(-c2cc(N3CCN(C(=O)c4ccoc4)CC3)n3nc(-c4cccc(Cl)c4)cc3n2)cc1 [Compound 29] | – | – | 2.4 fold
23 | O=C(c1ccoc1)N1CCN(c2cc(-c3cccnc3)nc3cc(-c4cccc(Cl)c4)nn23)CC1 [Compound 30] | 5.33 µM | 5.77 µM | 2.9 fold
24 | O=C(c1ccoc1)N1CCN(c2cc(-c3ccncc3)nc3cc(-c4cccc(Cl)c4)nn23)CC1 [Compound 31] | 13.50 µM | 57.80 µM | 2.5 fold
25 | C#Cc1cc(N2CCN(C(=O)c3ccoc3)CC2)n2nc(-c3cccc(Cl)c3)cc2n1 [Compound 32] | – | – | 4.3 fold
26 | O=C(c1ccoc1)N1CCN(c2cc(-c3ccccc3)nc3cc(-c4ccc(Br)cc4)nn23)CC1 [Compound 33] | – | – | 1.7 fold

Row | Compound | ABCB1 TD50 [1] | ABCG2 TD50 [2] | ∼Fold G2 Selective [3]
27 | COc1ccccc1-c1cc2nc(-c3ccccc3)cc(N3CCN(C(=O)c4ccoc4)CC3)n2n1 [Compound 34] | 4.37 µM | 6.50 µM | 4.8 fold
28 | COc1cccc(-c2cc3nc(-c4ccccc4)cc(N4CCN(C(=O)c5ccoc5)CC4)n3n2)c1 [Compound 35] | – | – | 2.0 fold
29 | COc1ccc(-c2cc3nc(-c4ccccc4)cc(N4CCN(C(=O)c5ccoc5)CC4)n3n2)cc1 [Compound 36] | 5.54 µM | >100 µM | 1.2 fold
30 | COc1ccccc1-c1cc2nc(-c3ccccc3)cc(N3CCN(C(=O)c4ccco4)CC3)n2n1 [Compound 37] | – | – | 2.9 fold
31 | COc1cccc(-c2cc3nc(-c4ccccc4)cc(N4CCN(C(=O)c5ccco5)CC4)n3n2)c1 [Compound 38] | – | – | 3.4 fold
32 | CCCN(CCc1ccccc1)C(=O)[C@@H]1OC(C(=O)O)=C[C@H](O)[C@H]1NC(C)=O [Compound 39] | – | – | 2.7 fold
33 | Cc1cccc(-c2cc3nc(-c4ccccc4)cc(N4CCN(C(=O)c5ccco5)CC4)n3n2)c1 [Compound 40] | – | – | 1.6 fold
34 | COc1ccccc1-c1cc2nc(-c3ccccc3)cc(N3CCN(C(=O)c4ccccc4)CC3)n2n1 [Compound 41] | – | – | 3.0 fold
35 | O=C(c1ccccc1)N1CCN(c2cc(-c3ccccc3)nc3cc(-c4cccc(F)c4)nn23)CC1 [Compound 42] | – | – | 1.9 fold
36 | O=C(c1ccccc1)N1CCN(c2cc(-c3ccccc3)nc3cc(-c4ccc(F)cc4)nn23)CC1 [Compound 43] | – | – | 2.0 fold
37 | COc1ccccc1-c1cc(N2CCN(C(=O)c3ccoc3)CC2)n2nc(-c3ccccc3)cc2n1 [Compound 44] | 3.73 µM | 7.62 µM | 1.2 fold
38 | COc1ccc(-c2cc(N3CCN(C(=O)c4ccoc4)CC3)n3nc(-c4ccccc4)cc3n2)cc1 [Compound 45] | – | – | 1.9 fold
39 | O=C(c1ccoc1)N1CCN(c2cc(-c3ccccc3F)nc3cc(-c4ccccc4)nn23)CC1 [Compound 46] | – | – | 10.0 fold
40 | O=C(c1ccoc1)N1CCN(c2cc(-c3cccc(F)c3)nc3cc(-c4ccccc4)nn23)CC1 [Compound 47] | – | – | 4.2 fold
41 | O=C(c1ccoc1)N1CCN(c2cc(-c3ccc(F)cc3)nc3cc(-c4ccccc4)nn23)CC1 [Compound 48] | – | – | 1.8 fold
42 | CC(C)(C)c1cc(N2CCN(C(=O)c3ccoc3)CC2)n2nc(-c3ccccc3)cc2n1 [Compound 49] | – | – | 0.5 fold
43 | O=C(c1ccoc1)N1CCN(c2cc(-c3ccco3)nc3cc(-c4ccco4)nn23)CC1 [Compound 52] | 1.93 µM | >100 µM | –
44 | O=C(c1ccoc1)N1CCN(c2cc(-c3ccco3)nc3cc(-c4cccc(Cl)c4)nn23)CC1 [Compound 53] | 8.53 µM | 10.80 µM | –
45 | COc1cccc(-c2cc3nc(-c4ccco4)cc(N4CCN(C(=O)c5ccoc5)CC4)n3n2)c1 [Compound 56] | 5.52 µM | >100 µM | –
46 | COc1ccc(-c2cc3nc(-c4ccco4)cc(N4CCN(C(=O)c5ccoc5)CC4)n3n2)cc1 [Compound 57] | >100 µM | >100 µM | –
47 | O=C(c1ccoc1)N1CCN(c2cc(-c3ccoc3)nc3cc(-c4ccccc4)nn23)CC1 [Compound 61] | 7.33 µM | 18.30 µM | –
48 | COc1cccc(-c2cc(N3CCN(C(=O)c4ccoc4)CC3)n3nc(-c4ccccc4)cc3n2)c1 [Compound 65] | 5.77 µM | 67.80 µM | 83 fold
49 | CC(=O)N1CCN(c2cc(-c3ccco3)nc3cc(-c4ccccc4)nn23)CC1 [Compound 74] | 10.10 µM | >100 µM | –
50 | CC(=O)N1CCN(c2cc(-c3ccco3)nc3cc(-c4cccc(Cl)c4)nn23)CC1 [Compound 87] | 17.60 µM | >100 µM | –
51 | COc1cccc(-c2cc3nc(-c4ccco4)cc(N4CCN(C(C)=O)CC4)n3n2)c1 [Compound 88] | 49.30 µM | >100 µM | –
52 | XR9051 [Compound 2, reference compound] | 1.97 µM | 21.40 µM | –
